Measured values from ChEMBL document CHEMBL1142466, “Itk kinase inhibitors: initial efforts to improve the metabolical stability and the cell activity of the benzimidazole lead” (Bioorg Med Chem Lett, 2008).

Experiments:
Mus musculus = assay: Inhibition of anti-CD3-induced IL2 production in sc dosed mouse; type: functional, organism-based
[1] = target: T1, Tyrosine-protein kinase ITK/TSK (Homo sapiens, UniProt Q08881); assay: Inhibition of recombinant ITK by DELFIA assay
T1 sequence (Q08881 whole entry): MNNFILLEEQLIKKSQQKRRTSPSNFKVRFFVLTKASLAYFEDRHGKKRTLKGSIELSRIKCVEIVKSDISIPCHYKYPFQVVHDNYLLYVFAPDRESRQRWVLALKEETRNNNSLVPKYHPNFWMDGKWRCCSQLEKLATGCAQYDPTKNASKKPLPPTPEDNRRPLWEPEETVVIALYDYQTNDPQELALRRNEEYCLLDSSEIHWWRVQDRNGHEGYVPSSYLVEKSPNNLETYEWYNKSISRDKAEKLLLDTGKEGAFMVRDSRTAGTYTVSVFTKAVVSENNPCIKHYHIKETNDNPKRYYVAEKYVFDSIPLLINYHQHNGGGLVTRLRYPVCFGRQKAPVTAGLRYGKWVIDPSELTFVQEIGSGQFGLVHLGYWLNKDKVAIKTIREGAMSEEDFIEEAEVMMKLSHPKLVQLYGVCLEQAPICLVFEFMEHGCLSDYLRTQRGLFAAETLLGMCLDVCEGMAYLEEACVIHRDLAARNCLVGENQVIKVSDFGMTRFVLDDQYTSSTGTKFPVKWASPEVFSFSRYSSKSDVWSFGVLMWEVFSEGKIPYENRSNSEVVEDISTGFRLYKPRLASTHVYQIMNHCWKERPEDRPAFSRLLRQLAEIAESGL

[2] = target: T2, Tyrosine-protein kinase TXK (Homo sapiens, UniProt P42681); assay: Inhibition of TXK
T2 sequence (P42681 whole entry): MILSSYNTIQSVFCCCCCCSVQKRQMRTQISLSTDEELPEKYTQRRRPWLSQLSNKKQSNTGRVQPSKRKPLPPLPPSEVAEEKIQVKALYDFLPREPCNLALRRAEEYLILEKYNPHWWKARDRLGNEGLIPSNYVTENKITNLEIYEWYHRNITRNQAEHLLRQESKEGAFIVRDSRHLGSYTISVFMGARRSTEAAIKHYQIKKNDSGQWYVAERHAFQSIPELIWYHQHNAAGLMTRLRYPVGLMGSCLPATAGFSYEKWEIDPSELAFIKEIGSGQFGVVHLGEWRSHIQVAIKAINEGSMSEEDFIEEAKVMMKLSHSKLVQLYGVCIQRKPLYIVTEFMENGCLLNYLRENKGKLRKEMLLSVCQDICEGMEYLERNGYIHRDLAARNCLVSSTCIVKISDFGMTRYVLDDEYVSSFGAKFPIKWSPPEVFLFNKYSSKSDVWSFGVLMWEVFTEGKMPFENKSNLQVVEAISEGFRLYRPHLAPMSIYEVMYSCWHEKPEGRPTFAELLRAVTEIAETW

[3] = target: Tyrosine-protein kinase Lyn (Homo sapiens, UniProt P07948); assay: Inhibition of Lyn
Cytochrome P450 3A4 = Cytochrome P450 3A4 (Homo sapiens, UniProt P08684); assay: Inhibition of CYP3A4; type: ADME
Insulin receptor = Insulin receptor (Homo sapiens, UniProt P06213); assay: Inhibition of IRK
Jurkat = assay: Cytotoxicity against human JURKAT cells; type: functional; conditions: read-out: TC50 (the source's name)
[4] = target: T3, Tyrosine-protein kinase Tec (Homo sapiens, UniProt P42680); assay: Inhibition of Tec kinase
T3 sequence (P42680 whole entry): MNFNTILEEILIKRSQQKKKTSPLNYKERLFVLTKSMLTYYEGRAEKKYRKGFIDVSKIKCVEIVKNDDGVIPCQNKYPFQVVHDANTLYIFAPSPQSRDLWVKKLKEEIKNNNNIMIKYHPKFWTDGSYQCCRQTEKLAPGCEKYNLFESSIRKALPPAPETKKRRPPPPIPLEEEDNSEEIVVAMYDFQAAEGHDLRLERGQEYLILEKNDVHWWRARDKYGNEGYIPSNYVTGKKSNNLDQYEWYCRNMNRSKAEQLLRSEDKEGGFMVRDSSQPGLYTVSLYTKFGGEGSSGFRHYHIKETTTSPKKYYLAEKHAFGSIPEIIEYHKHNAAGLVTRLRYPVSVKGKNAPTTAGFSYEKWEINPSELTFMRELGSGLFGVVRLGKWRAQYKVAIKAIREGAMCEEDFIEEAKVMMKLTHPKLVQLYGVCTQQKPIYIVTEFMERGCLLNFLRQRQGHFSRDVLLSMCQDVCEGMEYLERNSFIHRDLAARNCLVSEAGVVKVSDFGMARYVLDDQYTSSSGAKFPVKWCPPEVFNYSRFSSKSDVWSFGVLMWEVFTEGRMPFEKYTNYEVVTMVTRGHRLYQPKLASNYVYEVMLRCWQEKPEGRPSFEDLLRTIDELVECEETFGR

Cytochrome P450 2C9 = Cytochrome P450 2C9 (Homo sapiens, UniProt P11712); assay: Inhibition of CYP2C9; type: ADME
Cytochrome P450 2C9, sequence (P11712 whole entry): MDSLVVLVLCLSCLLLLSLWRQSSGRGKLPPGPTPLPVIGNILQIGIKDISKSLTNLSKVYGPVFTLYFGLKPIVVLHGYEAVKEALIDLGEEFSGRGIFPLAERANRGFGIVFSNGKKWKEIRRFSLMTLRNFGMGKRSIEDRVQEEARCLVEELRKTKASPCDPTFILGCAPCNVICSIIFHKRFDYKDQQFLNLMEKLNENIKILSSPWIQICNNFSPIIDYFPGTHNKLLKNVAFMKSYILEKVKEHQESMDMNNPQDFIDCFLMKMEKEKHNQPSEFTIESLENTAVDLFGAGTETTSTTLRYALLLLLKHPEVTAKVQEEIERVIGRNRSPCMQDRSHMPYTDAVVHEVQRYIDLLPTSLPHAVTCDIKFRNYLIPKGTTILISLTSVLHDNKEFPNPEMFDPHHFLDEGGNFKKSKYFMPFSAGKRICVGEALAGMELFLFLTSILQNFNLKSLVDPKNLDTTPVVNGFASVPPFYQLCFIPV

Insulin receptor, sequence (P06213 28-758 limits assumed): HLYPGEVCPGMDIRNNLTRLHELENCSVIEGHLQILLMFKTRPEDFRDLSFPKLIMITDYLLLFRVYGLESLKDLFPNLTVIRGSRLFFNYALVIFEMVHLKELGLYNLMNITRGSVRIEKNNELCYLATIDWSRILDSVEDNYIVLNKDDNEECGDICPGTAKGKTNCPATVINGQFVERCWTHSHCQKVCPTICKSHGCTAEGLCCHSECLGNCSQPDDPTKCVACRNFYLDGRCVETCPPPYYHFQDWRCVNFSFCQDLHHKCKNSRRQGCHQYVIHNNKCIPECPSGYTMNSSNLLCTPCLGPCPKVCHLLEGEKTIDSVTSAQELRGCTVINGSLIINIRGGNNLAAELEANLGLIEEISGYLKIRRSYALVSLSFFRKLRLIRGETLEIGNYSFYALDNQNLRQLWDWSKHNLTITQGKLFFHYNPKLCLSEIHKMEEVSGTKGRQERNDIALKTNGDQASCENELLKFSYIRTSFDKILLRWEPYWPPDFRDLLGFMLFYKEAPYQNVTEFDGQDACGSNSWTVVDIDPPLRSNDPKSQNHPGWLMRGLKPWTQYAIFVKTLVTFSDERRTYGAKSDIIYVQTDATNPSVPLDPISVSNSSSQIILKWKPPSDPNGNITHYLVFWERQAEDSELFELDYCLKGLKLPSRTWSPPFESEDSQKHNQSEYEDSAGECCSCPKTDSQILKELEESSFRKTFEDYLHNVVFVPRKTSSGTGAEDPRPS
Insulin receptor, sequence (P06213 763-1382 limits assumed): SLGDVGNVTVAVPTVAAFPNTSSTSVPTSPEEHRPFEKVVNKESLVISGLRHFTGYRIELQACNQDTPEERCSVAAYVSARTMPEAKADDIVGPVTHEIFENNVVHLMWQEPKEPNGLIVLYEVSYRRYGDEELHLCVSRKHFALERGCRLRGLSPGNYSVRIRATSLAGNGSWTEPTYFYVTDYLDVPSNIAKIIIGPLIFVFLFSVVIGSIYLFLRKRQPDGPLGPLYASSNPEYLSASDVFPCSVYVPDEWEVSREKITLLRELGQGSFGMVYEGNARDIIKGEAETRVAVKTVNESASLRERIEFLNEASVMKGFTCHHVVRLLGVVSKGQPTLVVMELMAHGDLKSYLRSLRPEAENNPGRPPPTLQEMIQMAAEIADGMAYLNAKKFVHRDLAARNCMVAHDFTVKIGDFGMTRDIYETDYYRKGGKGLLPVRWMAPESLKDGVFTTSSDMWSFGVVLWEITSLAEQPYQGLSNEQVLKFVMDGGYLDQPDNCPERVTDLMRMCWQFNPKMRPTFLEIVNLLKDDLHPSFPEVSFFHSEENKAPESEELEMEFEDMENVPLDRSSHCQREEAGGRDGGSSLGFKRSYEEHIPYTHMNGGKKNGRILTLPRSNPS
Cytochrome P450 3A4, sequence (P08684 whole entry): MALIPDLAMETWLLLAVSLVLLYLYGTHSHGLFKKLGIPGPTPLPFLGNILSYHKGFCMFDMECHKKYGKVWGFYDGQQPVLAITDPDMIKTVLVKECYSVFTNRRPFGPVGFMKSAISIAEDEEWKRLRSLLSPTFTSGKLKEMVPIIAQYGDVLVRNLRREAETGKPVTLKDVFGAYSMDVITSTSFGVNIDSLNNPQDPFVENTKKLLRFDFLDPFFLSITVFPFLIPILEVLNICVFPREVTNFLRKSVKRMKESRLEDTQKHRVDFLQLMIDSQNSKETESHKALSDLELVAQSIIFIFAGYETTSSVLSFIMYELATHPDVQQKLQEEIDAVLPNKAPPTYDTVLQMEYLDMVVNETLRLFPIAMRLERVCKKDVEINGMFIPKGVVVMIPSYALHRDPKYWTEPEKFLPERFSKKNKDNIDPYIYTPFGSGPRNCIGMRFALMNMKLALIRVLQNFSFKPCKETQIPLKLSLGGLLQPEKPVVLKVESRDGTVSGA
Tyrosine-protein kinase Lyn, sequence (P07948 whole entry): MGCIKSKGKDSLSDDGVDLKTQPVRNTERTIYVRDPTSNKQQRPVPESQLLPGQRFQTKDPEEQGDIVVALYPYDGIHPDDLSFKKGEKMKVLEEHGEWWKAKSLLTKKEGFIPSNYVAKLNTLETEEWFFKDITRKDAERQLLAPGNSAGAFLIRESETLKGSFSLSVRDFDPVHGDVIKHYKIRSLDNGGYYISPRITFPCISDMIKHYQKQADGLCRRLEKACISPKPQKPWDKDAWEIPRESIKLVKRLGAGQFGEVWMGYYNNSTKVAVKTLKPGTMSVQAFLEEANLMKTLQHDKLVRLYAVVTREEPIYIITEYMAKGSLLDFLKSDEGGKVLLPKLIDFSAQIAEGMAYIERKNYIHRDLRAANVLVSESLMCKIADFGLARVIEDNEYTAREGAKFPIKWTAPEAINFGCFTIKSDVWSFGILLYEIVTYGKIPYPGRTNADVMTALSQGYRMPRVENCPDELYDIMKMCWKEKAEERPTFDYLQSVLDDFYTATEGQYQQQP

SMILES | IC50 [2] [µM] | IC50 [3] [µM] | Activity (Cytochrome P450 3A4) [µM] | IC50 (Insulin receptor) [µM] | IC50 [4] [µM] | Activity (Cytochrome P450 2C9) [µM] | CC50 (Jurkat) [µM] | other results
CC(=O)N1CCN(C(=O)c2cc(CSc3cnc(NC(=O)c4ccc(CNC(C)C(C)(C)C)cc4)s3)cc(C)c2C)CC1 (configuration not stated) |  |  |  |  |  |  |  | Activity (Mus musculus): Dose-dependent effect
CCN(C(=O)c1ccccc1)c1ccc2c(c1)nc(NC(=O)c1ccno1)n2CCC(N)=O |  |  |  |  |  |  |  | IC50 [1]: 0.027 µM
CN(C(=O)c1ccccc1)c1ccc2c(c1)nc(NC(=O)c1ccc(Cl)cc1)n2CCC(N)=O | 0.5 | > 10 | > 30 |  | > 10 | > 30 | 5.8 | 
CN(C(=O)c1ccccc1)c1ccc2c(c1)nc(NC(=O)c1ccc(C#N)cc1)n2CCC(N)=O | 0.56 | > 10 | > 30 | > 10 | > 10 | > 30 | > 10 | 
CN(C(=O)c1ccccc1)c1ccc2c(c1)nc(NC(=O)c1ccoc1)n2CCC(N)=O |  |  |  | 0.32 |  |  |  | IC50 [1]: 0.01 µM
CN(C(=O)c1ccccc1)c1ccc2c(c1)nc(NC(=O)c1ccno1)n2CCC(N)=O |  |  |  | > 10 |  |  |  | 

Now from value to molecule, other results behind:

IC50 [2] [µM] | IC50 [3] [µM] | Activity (Cytochrome P450 3A4) [µM] | IC50 (Insulin receptor) [µM] | IC50 [4] [µM] | Activity (Cytochrome P450 2C9) [µM] | SMILES | CC50 (Jurkat) [µM] | other results
0.31 | > 10 | > 30 | > 10 | > 10 | > 30 | CCN(C(=O)c1ccccc1)c1ccc2c(c1)nc(NC(=O)c1ccc(C#N)cc1)n2CCC(N)=O | > 10 | 
 |  |  | > 10 |  |  | CN(C(=O)c1ccccc1)c1ccc2c(c1)nc(NC(=O)c1ccc(C#N)nc1)n2CCC(N)=O |  | 
 |  |  | > 10 |  |  | Cc1cc(C(=O)Nc2nc3cc(N(C)C(=O)c4ccccc4)ccc3n2CCC(N)=O)ccc1C#N |  | 
